We go through 4 compounds from US10759762B2, “Fluorescent synthetic retinoids” (High Force Research Limited, priority 2014, dated 2020).

Series [1] deals with TERA-2 cells. The experiment in a line: Immunocytochemical staining for cytokeratin 8 (CK8). Format: cell-based. Conditions: 10 μM vs 1 μM.
For series [2], the system named is cell populations. As to the kind of experiment: Phase contrast images of treated cell populations. Format: cell-based. The text has this: In cell populations treated with DMSO, the cells are small, and densely packed together.
For series [3], the system named is TERA-2 cells. The experiment in a line: Immunocytochemical staining for Sox 2. The following applies: 1 and 10 μM. The format is cell-based.
Series [4] relates to TERA-2 cells. The experiment in a line: Flow cytometry, early neuronal marker A2B5. The format is cell-based. An excerpt:
ATRA treated cells express higher levels of A2B5 followed by EC23® and compound 9.

For series [5] the following is noted: background statement; cited from earlier work.
For series [6] the following is noted: background statement; cited from earlier work. This is another data set of the same source.
Series [7] concerns TERA-2 cells. The experiment in a line: Immunocytochemical staining for TUJ-1. The format is cell-based. The following applies: for TUJ-1 staining: 1 and 10 μM. An excerpt: DMSO treated cells show only limited TUJ-1 staining.
Series [8] relates to TERA-2 cells. The experiment in a line: Flow cytometry, stem cell marker SSEA-3. Format: cell-based. Conditions: for expression of SSEA-3 compared to DMSO treated cells: flow cytometry. (Flow cytometry measures light scatter and fluorescence of single cells or particles in a stream.)
The subject of series [9] is cells. As to the kind of experiment: MTT cell viability analysis. The format is cell-based. Conditions: compared to DMSO.
For series [10], the system named is TERA-2 cells. The experiment in a line: Flow cytometry, stem cell marker TRA160. Format: cell-based. Conditions: for expression of TRA160 compared to DMSO treated cells: flow cytometry.
Series [11] has as its system TERA-2 cells. The experiment in a line: Immunocytochemical staining for Oct 4. Format: cell-based.
Series [12] relates to TERA-2 cells. The experiment in a line: Immunocytochemical staining for nestin. Format: cell-based.
Series [13] is described as follows: Initial fluorescence characterisation (absorption and emission spectra in solvents). The format is physicochemical. The text has this:
Absorption and emission spectra of 9 were obtained in a variety of solvents (FIG. 3 and FIG. 4). […] The fluorescence emission wavelength is also highly dependent on solvent polarity, with a significant red shift occurring in polar solvents when compared to non polar solvents.
This absorption band peaks at around 379 nm, and trails into the indigo/blue (440 nm).

Series [14] is described as follows: Light stability of compound 9 by 1H NMR under standard laboratory light. Format: physicochemical. The method, then:
A ^1H NMR spectrum of compound 9 in DMSO-d6 was recorded after storage at ambient temperature in the absence of light (FIG. 7). The same sample of compound 9 was then exposed to standard laboratory light at a distance of 30 cm for 72 hours, and the ^1H NMR spectrum recorded (FIG. 8). Compound 9 is stable towards typical laboratory lighting over this time period, although a small proportion converts to a structurally similar enamine form. Compound 9 remains stable until around 16 day's exposure, where some indication of degradation becomes apparent. More significant degradation is observed after 22 day's exposure, although compound 9 still represents the major constituent of the sample (>60%).

Series [15] is described as follows: Stability on exposure to light of wavelength 300 to 400 nm. The format is physicochemical. Conditions: 3 days exposure to light of wavelength 300 to 400 nm. An excerpt: Retinoid compounds such as ATRA are unstable upon storage. In particular, such compounds are susceptible to photoisomerisation and degradation upon exposure to light in the 300 to 400 nm region. […] Generally the compounds of formula 1 have far better stability than retinoids such as ATRA, in particular the compounds of formula 1 are far less susceptible to photoisomerisation. Generally, following 3 days exposure to light having a wavelength of 300 to 400 nm, the compounds of the present invention undergo far less isomerisation and degradation than ATRA. Typically at least 60% by weight of the compounds of the present invention remain (compared to less than 40% by weight ATRA) following 3 days exposure to light of wavelength 300 to 400 nm.

[16] abbreviates: 1 M treatment (so in the source).
[17] abbreviates: both 1 and 10 M treatments (so in the source).

Regarding `CC1(C)CCC(C)(C)c2cc(C#Cc3ccc(C(=O)O)cc3)ccc21` [EC23®], the “CK8 staining intensity in 10 μM samples compared with 1 μM samples” value in series [1] was “less intense”. Moreover, in series [2], the “cell population appearance in contrast to DMSO (small, densely packed)” value (shortened to “cell population appearance in contrast”) is “less dense, and cells are much more spread out”. The “Sox 2 staining compared to DMSO treated cells” value in series [3] is “significantly reduced staining”. The “expression of A2B5 compared to DMSO treated cells” value in series [4] is “significantly increased”. Further, the “susceptibility to metabolic degradation” value in [5] was “not be susceptible”. The “stability on exposure to light” value in series [6] is “good stability”. In addition, the “TUJ-1 staining with 10 μM treatment relative to 1 μM” value in series [7] was “increased staining”. Further, the TUJ-1 staining result in series [7] is “significant staining”. In series [8], the “expression of SSEA-3 compared to DMSO treated cells” value was “significantly decreased”. Also, the MTT cell viability result in [9] (1 μM treatment) and in [9] (10 μM treatment) was “comparable viability to DMSO” throughout. Further, the “expression of TRA160 compared to DMSO treated cells” value in series [10] is recorded as “significantly decreased”. The “Oct 4 staining” value in [11] (1 μM) and in series [11] (10 μM) was “do not exhibit staining” in each case. The nestin staining entry in series [12] (10 μM treatment) is “positive for nestin with staining possibly to a lesser extent”; in [12] (setting [16]), “positive for nestin”.

As to `CC(C)N1CCC(C)(C)c2cc(C#Cc3ccc(C(=O)O)cc3)ccc21` [compound 9, 4-2-[4,4-Dimethyl-1-(propan-2-yl)-1,2,3,4-tetrahydroquinolin-6-yl]ethynylbenzoic acid], the “CK8 staining intensity in 10 μM samples compared with 1 μM samples” value in series [1] was “slightly brighter”. Also, in series [2], the “cell population appearance in contrast” value was “less dense, and cells are much more spread out”. For the same compound, in series [3], the “Sox 2 staining compared to DMSO treated cells” value is on record as “significantly reduced staining”. In addition, the “expression of A2B5 compared to DMSO treated cells” value in series [4] is given as “significantly increased”. The “lowest concentration at which fluorescence was easily detected” value in [13] (in solvents) stood at 1 nM. Besides, in series [7], the “TUJ-1 staining with 10 μM treatment relative to 1 μM” value is “increased staining”. Besides, in series [7], the TUJ-1 staining entry was “significant staining”. In series [8] (setting [17]), the “level of SSEA-3 relative to ATRA and EC23” value was “higher levels”. Besides, in series [8], the “expression of SSEA-3 compared to DMSO treated cells” value was “significantly decreased”. Also, the MTT cell viability result in series [9] (1 μM treatment) and in [9] (10 μM treatment) was “comparable viability to DMSO” each time. The “exposure time until which compound remains stable (first indication of degradation)” value in series [14] (DMSO-d6, standard laboratory light) is “around 16 day”. Besides, in [14] (DMSO-d6, standard laboratory light at 30 cm, 72 hours, ambient temperature), the “stability towards typical laboratory lighting” value is given as “stable”. Moreover, the “share of the sample still compound 9 (major constituent)” value in [14] (after 22 day's exposure to laboratory light) is reported as above 60%. Besides, the “level of TRA160 relative to ATRA and EC23” value in series [10] (setting [17]) is “slightly higher levels”. Besides, the “expression of TRA160 compared to DMSO treated cells” value in [10] is “significantly decreased”. Moreover, the “Oct 4 staining” value in [11] (1 μM) and in [11] (10 μM) was “do not exhibit staining” in each case. For the same compound, the nestin staining result was “positive for nestin with staining possibly to a lesser extent” in series [12] (10 μM treatment) and “positive for nestin” in series [12] (setting [16]).

As for `CC1=C(/C=C/C(C)=C/C=C/C(C)=C/C(=O)O)C(C)(C)CCC1` [ATRA, All Trans-Retinoic Acid], the “CK8 staining intensity in 10 μM samples compared with 1 μM samples” value in series [1] is given as “less intense”. Also, in series [15], the “amount of compound remaining” value is “less than 40 % by weight”. Moreover, in series [2], the “cell population appearance in contrast” value was “less dense, and cells are much more spread out”. For the same compound, the “Sox 2 staining compared to DMSO treated cells” value in [3] is “significantly reduced staining”. In series [4], the “expression of A2B5 compared to DMSO treated cells” value was “significantly increased”. The “level of A2B5 relative to the other retinoids” value in series [4] was “higher levels”. In series [6], the “stability on exposure to light” value is “poor stability”. Also, the “TUJ-1 staining with 10 μM treatment relative to 1 μM” value in [7] was “increased staining”. The TUJ-1 staining entry in [7] is on record as “significant staining”. In addition, the “expression of SSEA-3 compared to DMSO treated cells” value in series [8] is recorded as “significantly decreased”. The MTT cell viability entry in series [9] (1 μM treatment) and in series [9] (10 μM treatment) was “comparable viability to DMSO” each time. In series [10], the “expression of TRA160 compared to DMSO treated cells” value is listed as “significantly decreased”. The “Oct 4 staining” value in series [11] (1 μM) is “staining is also evident”; in series [11] (10 μM) it was “do not exhibit staining”. Moreover, the nestin staining result in series [12] (10 μM treatment) and in series [12] (setting [16]) was “positive for nestin” each time.

Turning to `CC1=CC(C)(C)c2cc(C#Cc3ccc(C(=O)O)cc3)ccc2N1C(C)C` [compound 17, 4-2-[2,4,4-Trimethyl-1-(propan-2-yl)-1,4-dihydroquinolin-6-yl]ethynyl benzoic acid], the “peak of maximal absorption band” value in [13] (chloroform (FIG. 5)) was “around 379 nm”.
